# Target: GLP-1R (Homo sapiens, UniProt P43220)
# Assay: GLP-1R agonist cAMP stimulation assay (HTRF cAMP)
# Assay type: cell-based
# Conditions: HEK293 cell line expressing GLP-1 target; HTRF cAMP agonist mode, 30 min at RT
# In short: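 GLP-1R-expressing cells were stimulated with 10-point, 3-fold compound dilutions for 30 min at RT; HTRF cAMP detection reagents were then added for 60 min and the 665/615 ratio read. Ratios were converted to cAMP via a standard curve and % activity scaled between DMSO and top-concentration GLP-1(7-37) reference wells.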
# GLP-1R, sequence (P43220 24-463): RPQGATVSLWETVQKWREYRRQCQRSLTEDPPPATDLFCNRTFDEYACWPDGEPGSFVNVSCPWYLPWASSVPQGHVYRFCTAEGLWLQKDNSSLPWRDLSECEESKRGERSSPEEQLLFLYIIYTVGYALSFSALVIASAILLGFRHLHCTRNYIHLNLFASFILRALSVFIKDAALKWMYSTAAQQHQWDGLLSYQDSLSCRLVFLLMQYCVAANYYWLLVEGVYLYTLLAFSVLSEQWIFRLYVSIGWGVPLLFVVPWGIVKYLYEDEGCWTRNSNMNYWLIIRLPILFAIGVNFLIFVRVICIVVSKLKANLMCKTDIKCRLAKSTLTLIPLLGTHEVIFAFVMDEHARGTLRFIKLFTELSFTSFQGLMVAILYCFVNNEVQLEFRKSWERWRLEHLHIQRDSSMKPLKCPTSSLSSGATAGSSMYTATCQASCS
row,SMILES,EC50 [nM]
1,Cc1n[nH]c2cnc(NC(=O)c3ccc4c(c3)nc(CN3CC=C(c5cccc(OCc6ccc(Cl)cc6F)n5)CC3)n4C[C@@H]3CCO3)nc12 [Compound 168],10.5
2,Cc1cc(C(=O)Nc2ccc3c(c2)nc(CN2CC=C(c4cccc(OCc5ccc(Cl)cc5F)n4)CC2)n3C[C@@H]2CCO2)cc2nn[nH]c12 [Compound 242],0.17
3,COCCn1c(CN2CCC(c3cccc(OCc4ccc(Cl)cc4F)n3)CC2)nc2cc(C(=O)NCc3ccc(O)c(O)c3)ccc21 [Compound 33],61
4,N#Cc1ccc(COc2cccc(C3=CCN(Cc4nc5cc(C(=O)Nc6ccc7[nH]nc(C(F)(F)F)c7c6)ccc5n4C[C@@H]4CCO4)CC3)n2)c(F)c1 [Compound 184],1.57
5,CCc1n[nH]c2ccc(C(=O)Nc3ccc4c(c3)nc(C3CC35CCN(c3cccc(OCc6ccc(Cl)cc6F)n3)CC5)n4CC3CCO3)cc12 (stereo not shown) [Compound 250],1.49
6,Cc1cc(NC(=O)c2ccc3c(c2)nc(CN2CCC(c4cccc(OCc5ccc(C#N)cc5F)n4)CC2)n3C[C@@H]2CCO2)cc2c1NC(=O)C21CC1 [Compound 124],0.17
7,Cc1nn(C)c2ccc(NC(=O)c3ccc4c(c3)nc(CN3CCC(c5cccc(OCc6ccc(Cl)cc6F)n5)CC3)n4C[C@@H]3CCO3)cc12 [Compound 109],47
8,Cc1n[nH]c2ccc(C(=O)Nc3ccc4c(c3)nc(C(F)(F)N3CC=C(c5cccc(OCc6ccc(Cl)cc6F)n5)CC3)n4C[C@@H]3CCO3)cc12 [Compound 257],15.1
9,Cc1n[nH]c2c(C)cc(C(=O)Nc3ccc4c(c3)nc(Cc3ccc(-c5cccc6c5OC(C)(c5ccc(C#N)cc5F)O6)cc3F)n4CC3CCO3)cc12 (stereo not shown) [Compound 317],0.32
10,Cc1n[nH]c2ccc(NC(=O)c3ccc4nc(CN5CC=C(c6cccc(OCc7ccc(C#N)cc7F)n6)CC5)n(CC5CCO5)c4c3)cc12 (stereo not shown) [Compound 275],6.21
11,O=C(Nc1ccc2ncsc2c1)c1ccc2c(c1)nc(CN1CC=C(c3cccc(OCc4ccc(Cl)cc4F)n3)CC1)n2C[C@@H]1CCO1 [Compound 150],5.78
12,Cc1cc(NC(=O)c2ccc3c(c2)nc(CN2CC=C(c4cccc(OCc5ccc(Cl)cc5F)n4)CC2)n3C[C@@H]2CCO2)cc2c1NC(=O)C21CC1 [Compound 155],0.55
13,COCCn1c(CN2CCC(c3cccc(OCc4ccc(Cl)cc4F)n3)CC2)nc2cc(C(=O)NCCc3nc4ccccc4[nH]3)ccc21 [Compound 22],1370
14,Cc1n[nH]c2ncc(C(=O)Nc3ccc4c(c3)nc(CN3CC=C(c5cccc(OCc6ccc(C#N)cc6F)n5)CC3)n4C[C@@H]3CCO3)cc12 [Compound 234],3.87
15,Cc1n[nH]c2cc(NC(=O)c3ccc4c(c3)nc(CN3CCC(c5cccc(OCc6ccc(Cl)cc6F)n5)CC3)n4C[C@@H]3CCO3)ccc12 [Compound 94],372
16,COCCn1c(CN2CCC(c3cccc(OCc4ccc(Cl)cc4F)n3)CC2)nc2cc(C(=O)NCCc3c[nH]c4ccc(O)cc34)ccc21 [Compound 17],404
17,O=C(NCc1ccc2[nH][nH]c(=O)c2c1)c1ccc2c(c1)nc(CN1CCC(c3cccc(OCc4ccc(Cl)cc4F)n3)CC1)n2C[C@@H]1CCO1 [Compound 76],9.04
18,O=C(Nc1ccc2nc(CN3CC=C(c4cccc(OCc5ccc(Cl)cc5F)n4)CC3)n(CC3CCO3)c2c1)c1ccc2[nH]nc(F)c2c1 (stereo not shown) [Compound 280],21
19,Cc1cc2c(C#N)ccc(COc3cccc(C4=CCN(Cc5nc6cc(C(=O)Nc7ccc8[nH]nc(C(F)(F)F)c8c7)ccc6n5C[C@@H]5CCO5)CC4)n3)c2o1 [Compound 356],2.21
20,Cc1c[nH]c2c(C)cc(C(=O)Nc3ccc4c(c3)nc(CN3CC=C(c5cccc(OCc6ccc(Cl)cc6F)n5)CC3)n4C[C@@H]3CCO3)cc12 [Compound 390],5.21
21,Cc1n[nH]c2c(C)cc(C(=O)Nc3ccc4c(c3)nc(C(F)(F)N3CC=C(c5cccc(OCc6ccc(Cl)cc6F)n5)CC3)n4C[C@@H]3CCO3)cc12 [Compound 256],12.5
22,COCCn1c(CN2CCC(c3cccc(OCc4ccc(Cl)cc4F)n3)CC2)nc2cc(C(=O)NCc3ccccc3O)ccc21 [Compound 35],> 10000
23,O=C(Nc1cc(C(F)(F)F)c2c(c1)C1(CC1)C(=O)N2)c1ccc2nc(CN3CC=C(c4cccc(OCc5ccc(Cl)cc5F)n4)CC3)n(C[C@@H]3CCO3)c2c1 [Compound 273],2.78
24,O=C(NCC(=O)N1CC[C@H](O)C1)c1ccc2c(c1)nc(CN1CCC(c3cccc(OCc4ccc(Cl)cc4F)n3)CC1)n2C[C@@H]1CCO1 [Compound 70],1.9

# Continued by falling EC50, values first:
row,EC50 [nM],SMILES
1,993,COCCn1c(Cc2ccc(-c3cccc(OCc4ccc(C#N)cc4F)n3)cc2)nc2cc(C(=O)NCCc3ccc(C(=O)NCCc4ccc(C(=O)O)cc4)cc3)ccc21 [Compound 10]
2,87.8,O=C(Nc1ncc2[nH]cnc2n1)c1ccc2c(c1)nc(CN1CCC(c3cccc(OCc4ccc(Cl)cc4F)n3)CC1)n2C[C@@H]1CCO1 [Compound 89]
3,22.3,O=C(NCC(=O)N1CCC[C@H]1C(=O)O)c1ccc2c(c1)nc(CN1CCC(c3cccc(OCc4ccc(Cl)cc4F)n3)CC1)n2C[C@@H]1CCO1 [Compound 60]
4,9.85,O=C(Nc1ccc2nc(CN3CC=C(c4cccc(OCc5ccc(Cl)cc5F)n4)CC3)n(CC3CCO3)c2c1)c1ccc2[nH]nc(Cl)c2c1 (stereo not shown) [Compound 284]
5,9.19,Cc1n[nH]c2ccc(NC(=O)c3ccc4c(c3)nc(CN3CC=C(c5cccc(OCc6c(F)cnc7ccccc67)n5)CC3)n4C[C@@H]3CCO3)cc12 [Compound 368]
6,6.75,O=C(NCC(=O)N1CC[C@H]1C(=O)O)c1ccc2c(c1)nc(CN1CCC(c3cccc(OCc4ccc(Cl)cc4F)n3)CC1)n2C[C@@H]1CCO1 [Compound 61]
7,5.97,Cc1n[nH]c2ccc(NC(=O)c3ccc4c(c3)nc(CN3CC=C(c5cccc(OCc6ccc(C#N)c7ccccc67)n5)CC3)n4C[C@@H]3CCO3)cc12 [Compound 366]
8,2.22,CC(C)c1n[nH]c2ccc(C(=O)Nc3ccc4c(c3)nc(C3CC35CCC(c3cccc(OCc6ccc(Cl)cc6F)n3)CC5)n4CC3CCO3)cc12 (stereo not shown) [Compound 251]
9,2.12,CCc1n[nH]c2ccc(NC(=O)c3ccc4c(c3)nc(CN3CC=C(c5cccc(OCc6ccc(C#N)cc6F)n5)CC3)n4C[C@@H]3CCO3)cc12 [Compound 186]
10,1.02,Cc1n[nH]c2c(Cl)cc(C(=O)Nc3ccc4c(c3)nc(CN3CCC(c5cccc6c5OC(C)(c5ccc(Cl)cc5F)O6)CC3)n4CC3CCO3)cc12 (stereo not shown) [Compound 344]
11,0.95,CC(C)c1n[nH]c2ccc(C(=O)Nc3ccc4c(c3)nc(CN3CC=C(c5cccc(OCc6ccc(Cl)cc6F)n5)CC3)n4C[C@@H]3CCO3)cc12 [Compound 223]
12,0.75,O=C(Nc1ccc2c(c1)C1(CC1)C(=O)N2)c1ccc2c(c1)nc(CN1CCC(c3cccc(OCc4ccc(Cl)cc4F)n3)CC1)n2C[C@@H]1CCO1 [Compound 86]
13,0.65,Cc1cc2c(C#N)ccc(COc3cccc(C4CCN(Cc5nc6cc(NC(=O)c7cc(F)c8[nH]nc(C)c8c7)ccc6n5C[C@@H]5CCO5)CC4)n3)c2o1 [Compound 372]
14,0.42,Cc1n[nH]c2ccc(C(=O)Nc3ccc4c(c3)nc(CN3CC=C(c5cccc(OCc6ccc(C#N)cc6F)n5)CC3)n4C[C@@H]3CCO3)cc12 [Compound 235]
15,0.38,Cc1n[nH]c2ccc(NC(=O)c3ccc4c(c3)nc(CN3CCC(c5cccc(OCc6ccc(C#N)cc6F)n5)CC3)n4C[C@@H]3CCO3)cc12 [Compound 133]
16,0.19,Cc1n[nH]c2c(F)cc(NC(=O)c3ccc4c(c3)nc(CN3CC=C(c5cccc6c5O[C@](C)(c5ccc(C#N)cc5F)O6)CC3)n4CC3CCO3)cc12 (stereo partly shown) [Compound 300]

# — patent US20230271949A1, “GLP-1R MODULATING COMPOUNDS” (ASCLETIS BIOSCIENCE CO., LTD., priority 2022, published 2023)
